Some test systems named below: A498; ACHN; EKVX; HL-60; LOX IMVI; NCI-H23; NCI-H460; NCI-H522; OVCAR-3; OVCAR-4; OVCAR-5; SF-539; SN12C; SNB-75; TK-10; U-251; NCI-H226.
What all share (test): NCI tumour cell line growth inhibition, 48 h

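How tested: cells in 96-well plates exposed to compound for 48 hours at five concentrations. At the GI50, growth is halved.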 Calls of active or inactive are those of the source. No stated cut-off is given here; in the data, active = GI50 up to about 1.1 µM and inactive = higher.

As to `Cc1cc(Cl)ccc1NC(=O)C(=O)Cc1nc2ccccc2o1`, the GI50 in the experiment on A498, in the experiment with ACHN, in the experiment with EKVX, in the experiment on HL-60, in the experiment with LOX IMVI and in the experiment with NCI-H23 was > 100 µM (inactive) in each case. In addition, the GI50 in the experiment on NCI-H460, in the experiment on NCI-H522, with OVCAR-3, in the experiment with OVCAR-4, in the experiment on OVCAR-5 and in the experiment on SF-539 was > 100 µM (inactive) each time. Also, the GI50 in the experiment on SN12C, in the experiment on SNB-75, in the experiment on TK-10 and in the experiment on U-251 was > 100 µM (inactive) throughout.

Consider `COc1cc2c(c(OC)c1OC)CCNC2C1=C(O)COC1=O` (stereo not drawn), for which the GI50 was > 100 µM (inactive) with A498; > 100 µM (inactive) in the experiment with ACHN; > 100 µM (inactive) in the experiment with HL-60; > 100 µM (inactive) with LOX IMVI; 28.9 µM (inactive) in the experiment on NCI-H226; 92.9 µM (inactive) with NCI-H460. For the same molecule, the GI50 in the experiment with NCI-H522, with OVCAR-4, in the experiment with OVCAR-5, in the experiment on SF-539, with SN12C and in the experiment with SNB-75 was > 100 µM (inactive) throughout. Also, the GI50 in the experiment with TK-10 and in the experiment with U-251 was > 100 µM (inactive) each time.

`Cc1ccc(S(=O)(=O)N/N=C/C(C)C)cc1`: the GI50 in the experiment on A498, with ACHN, in the experiment with EKVX, with HL-60, in the experiment on LOX IMVI and in the experiment with NCI-H23 was > 100 µM (inactive) throughout. The GI50 in the experiment with NCI-H460, with OVCAR-3, in the experiment with OVCAR-4, in the experiment with OVCAR-5, in the experiment with SF-539 and in the experiment on SN12C was > 100 µM (inactive) throughout. The GI50 was 70.6 µM (inactive) in the experiment with SNB-75, > 100 µM (inactive) with TK-10 and > 100 µM (inactive) with U-251.

As for `COc1ccc2c(c1)OC[C@@H]1c3cc4c(cc3O[C@H]21)OCO4`, the GI50 in the experiment on A498, with ACHN, in the experiment on EKVX, in the experiment on HL-60, in the experiment on LOX IMVI and in the experiment on NCI-H226 was > 100 µM (inactive) in each case. The GI50 in the experiment on NCI-H23 was > 100 µM (inactive); in the experiment on NCI-H460, > 100 µM (inactive); in the experiment with NCI-H522, > 100 µM (inactive); in the experiment on OVCAR-3, > 100 µM (inactive); with OVCAR-4, 35.7 µM (inactive); with OVCAR-5 it was > 100 µM (inactive). Besides, the GI50 with SF-539 was > 100 µM (inactive); with SNB-75, 11.6 µM (inactive); in the experiment on TK-10 it was > 100 µM (inactive); in the experiment with U-251, > 100 µM (inactive).

For `CS(=O)(=O)OCCN1CCN(C(=O)c2cccc3c(Nc4ccc(S(N)(=O)=O)cc4)c4ccccc4nc23)CC1`, the GI50 with A498 is > 100 µM (inactive); in the experiment with ACHN it was > 100 µM (inactive); in the experiment on EKVX it was > 100 µM (inactive); with HL-60, > 63.1 µM (inactive); in the experiment with LOX IMVI it was > 40.6 µM (inactive); with NCI-H226 it was > 100 µM (inactive). Moreover, the GI50 in the experiment on NCI-H23, with NCI-H460, with NCI-H522, in the experiment on OVCAR-3, with OVCAR-4 and in the experiment with OVCAR-5 was > 100 µM (inactive) in each case. The GI50 with SF-539, in the experiment on SN12C, in the experiment with SNB-75, with TK-10 and with U-251 was > 100 µM (inactive) each time.

As for `O=C1c2ccccc2C(=O)N1C/C=N/NS(=O)(=O)c1ccc(Br)cc1`, the GI50 in the experiment on A498, in the experiment with ACHN, in the experiment with EKVX, with HL-60, in the experiment on NCI-H226 and in the experiment with NCI-H23 was > 100 µM (inactive) throughout. The GI50 with NCI-H460, in the experiment on NCI-H522, in the experiment with OVCAR-3, in the experiment with OVCAR-4, in the experiment on OVCAR-5 and with SF-539 was > 100 µM (inactive) each time. Further, the GI50 in the experiment with SN12C, in the experiment with SNB-75, in the experiment on TK-10 and in the experiment with U-251 was > 100 µM (inactive) throughout.

`CC(=O)Nc1ccc(S(=O)(=O)N/N=C/c2cc(I)cc([N+](=O)[O-])c2O)cc1`: the GI50 is > 100 µM (inactive) with A498; > 100 µM (inactive) in the experiment on ACHN; 60.5 µM (inactive) in the experiment with EKVX; 31.5 µM (inactive) in the experiment with HL-60; 80.9 µM (inactive) in the experiment on LOX IMVI; 62.4 µM (inactive) in the experiment with NCI-H226. Besides, the GI50 is 29.5 µM (inactive) in the experiment with NCI-H23; > 100 µM (inactive) with NCI-H460; > 100 µM (inactive) in the experiment with OVCAR-3; 30.3 µM (inactive) in the experiment with OVCAR-4; > 100 µM (inactive) in the experiment with OVCAR-5; 64.3 µM (inactive) in the experiment on SN12C. For the same molecule, the GI50 with SNB-75 was 25.6 µM (inactive); in the experiment with TK-10 it was > 100 µM (inactive); in the experiment with U-251, 49.4 µM (inactive).

Take `Nc1c(-c2cn(Cc3ccccc3)c3ccccc23)[n+]([O-])c2ccccc2[n+]1[O-]`: the GI50 is 18.4 µM (inactive) in the experiment with A498; 15.5 µM (inactive) in the experiment on ACHN; 32.6 µM (inactive) in the experiment on EKVX; 9.46 µM (inactive) in the experiment on HL-60; 24.2 µM (inactive) with LOX IMVI; 6.35 µM (inactive) with NCI-H226. For the same molecule, the GI50 was 22 µM (inactive) in the experiment on NCI-H23; 28.5 µM (inactive) in the experiment on NCI-H460; 13.2 µM (inactive) in the experiment with NCI-H522; 19.8 µM (inactive) with OVCAR-3; 43.6 µM (inactive) with OVCAR-4; 25.6 µM (inactive) in the experiment on OVCAR-5. For the same molecule, the GI50 is 31.8 µM (inactive) in the experiment on SN12C, 16.4 µM (inactive) in the experiment on SNB-75, 28.3 µM (inactive) with TK-10 and 32.5 µM (inactive) in the experiment with U-251.

As to `COc1cc2c(oc(=O)c3c4oc([Si](C)(C)C)cc4cc(OC)c23)c2cccc(OCc3ccccc3)c12`, the GI50 in the experiment with A498 is 31.4 µM (inactive); in the experiment on ACHN it was 51.4 µM (inactive); in the experiment on EKVX it was > 66.5 µM (inactive); in the experiment with HL-60 it was 43.3 µM (inactive); with LOX IMVI it was 44 µM (inactive); with NCI-H226 it was 42.5 µM (inactive). In addition, the GI50 with NCI-H23 was 16.3 µM (inactive); in the experiment with NCI-H460 it was 53.7 µM (inactive); in the experiment with NCI-H522, 36.4 µM (inactive); in the experiment with OVCAR-3 it was 34.8 µM (inactive); in the experiment on OVCAR-4 it was 33.1 µM (inactive); in the experiment with OVCAR-5, > 70.3 µM (inactive). Also, the GI50 in the experiment with SF-539 was 20.7 µM (inactive); with SN12C, > 100 µM (inactive); in the experiment on SNB-75 it was 19.7 µM (inactive); in the experiment with TK-10, 37.2 µM (inactive).

As for `Cc1cccc(-c2nc3c(C(=O)NCCN(C)C)cccc3[nH]2)c1`, the GI50 in the experiment with A498 is 1.54 µM (inactive); in the experiment on ACHN it was 2.26 µM (inactive); with EKVX, 1.46 µM (inactive); in the experiment on HL-60, 2.29 µM (inactive); with LOX IMVI it was 0.708 µM (active); in the experiment with NCI-H226, 1.85 µM (inactive). For the same molecule, the GI50 in the experiment with NCI-H23 was 1.06 µM (active); with NCI-H460, 0.369 µM (active); in the experiment on OVCAR-3, 1.89 µM (inactive); in the experiment with OVCAR-4, 0.809 µM (active); in the experiment on OVCAR-5, 1.88 µM (inactive); in the experiment on SF-539 it was 0.724 µM (active). Moreover, the GI50 with SN12C is 0.65 µM (active); with SNB-75 it was 2.2 µM (inactive); in the experiment on TK-10, 1.37 µM (inactive); in the experiment with U-251 it was 1.49 µM (inactive).

`O=C(Nc1nnc(S)[nH]1)C(=O)C(C(=O)c1ccc2ccccc2c1)C1OC(=O)c2ccccc21` (stereo not drawn): the GI50 in the experiment with A498 was > 100 µM (inactive); in the experiment with ACHN, > 100 µM (inactive); with EKVX, 39.7 µM (inactive); in the experiment with LOX IMVI it was 17.8 µM (inactive); in the experiment with NCI-H226, 4.85 µM (inactive); in the experiment on NCI-H23, 17.1 µM (inactive). Besides, the GI50 is > 100 µM (inactive) with NCI-H460; 17.6 µM (inactive) in the experiment on NCI-H522; 15.5 µM (inactive) in the experiment on OVCAR-3; 16.2 µM (inactive) in the experiment with OVCAR-4; 44.3 µM (inactive) in the experiment with OVCAR-5; 5.56 µM (inactive) in the experiment with SF-539. The GI50 with SN12C was 18.2 µM (inactive); in the experiment with SNB-75 it was 13.8 µM (inactive); with TK-10, 21.6 µM (inactive); with U-251, 8.15 µM (inactive).

Turning to `COC(=O)CC(=O)OC1C[C@@H]2CCC3C(C)(C)CCC[C@]3(C)C23CC[C@@]1(C)C3` (stereo partly drawn), the GI50 with ACHN is 17.5 µM (inactive); in the experiment on HL-60, > 100 µM (inactive); in the experiment with LOX IMVI, 17.8 µM (inactive); with NCI-H226, 28.6 µM (inactive); in the experiment with NCI-H23, 18.4 µM (inactive); in the experiment on NCI-H460 it was 19.8 µM (inactive). Further, the GI50 in the experiment with NCI-H522 was 12.9 µM (inactive); with OVCAR-3, 16.9 µM (inactive); in the experiment with OVCAR-4, 16.9 µM (inactive); in the experiment on OVCAR-5 it was 16.1 µM (inactive); with SF-539, 19.6 µM (inactive); with SN12C, 17.5 µM (inactive). The GI50 in the experiment on SNB-75 was 27.9 µM (inactive); in the experiment on TK-10 it was 19.1 µM (inactive); with U-251, 17.4 µM (inactive).

Values taken from ChEMBL document CHEMBL1201862, “PubChem BioAssay data set” (2004).
